Read-outs that look alike come from different tables or passages of the source.
How the values were obtained:
[1] = N. Engl. J. Med. 2004; 350(21):2129-2139; cited from earlier work
[2] = all of the patients treated with gefitinib, 250 mg daily orally
[3] = four patients with EGFR mutations detected in tumour samples
[4] = patients with EGFR mutations in serum
[5] = patients without EGFR mutations in serum
[6] = serum EGFR mutation + by EGFR Scorpion Kit
[7] = serum EGFR mutation + by direct sequence
[8] = serum EGFR mutation − by EGFR Scorpion Kit
[9] = serum EGFR mutation − by direct sequence

COc1cc2ncnc(Nc3ccc(F)c(Cl)c3)c2cc1OCCCN1CCOCC1 [gefitinib]
patients that have a rapid and often dramatic clinical response [1]: about 10% | Response PD (progressive disease), number of patients (NSCLC; 28 patients enrolled, RECIST): 11 n | Response PR (partial response), number of patients (NSCLC; 28 patients enrolled, RECIST): 9 n | Response SD (stable disease), number of patients (NSCLC; 28 patients enrolled, RECIST): 8 n | median OS (NSCLC; [2]): 306 days | median PFS (NSCLC; [2]): 98 days | responses to gefitinib: PD, number of patients (NSCLC; [3]): 1 | responses to gefitinib: PR, number of patients (NSCLC; [3]): 2 | responses to gefitinib: SD, number of patients (NSCLC; [3]): 1 | median OS (NSCLC; [4]): 611 days | median PFS (NSCLC; [4]): 200 days | median OS (NSCLC; [5]): 232 days | median PFS (NSCLC; [5]): 46 days | Response to gefitinib PD, number of patients (NSCLC; [6]): 2 | Response to gefitinib PR/SD, number of patients (NSCLC; [6]): 11 | Response to gefitinib PD, number of patients (NSCLC; [7]): 2 | Response to gefitinib PR/SD, number of patients (NSCLC; [7]): 8 | Response to gefitinib PD, number of patients (NSCLC; [8]): 8 | Response to gefitinib PR/SD, number of patients (NSCLC; [8]): 6 | Response to gefitinib PD, number of patients (NSCLC; [9]): 8 | Response to gefitinib PR/SD, number of patients (NSCLC; [9]): 9
